From patent US20250353842A1, “BICYCLIC AMINE CDK12 INHIBITORS” (Incyte Corporation, priority 2022, published 2025) come the findings set out here.

As a reminder, the IC50 is the concentration that gives 50% inhibition.

Where only a bound is given, the exact number is not on record here.

For the test, the target named is CDK12 complexed with Cyclin K (Homo sapiens (Human), UniProt Q9NYV4). The experiment in a line: CDK enzymatic assay (HTRF, LANCE Ultra kinase assay). The following applies: 60 minutes pre-incubation, 1 mM ATP. In kind it is biochemical. As to the method: The following activity of the CDK enzymes in complex with their respective cyclins we assayed: CDK1 complexed with Cyclin B1; CDK2 complexed with Cyclin E1; CDK4 complexed with Cyclin D1; CDK6 complexed with Cyclin D1; CDK6 complexed with Cyclin D3; CDK9 complexed with Cyclin T1; CDK7 complexed with Cyclin H/MAT1; CDK2 complexed with Cyclin A2; CDK5 complexed with p35; CDK12 complexed with Cyclin K; CDK13 complexed with Cyclin K. These in vitro enzyme activity are assayed using homogeneous time-resolved energy transfer (HTRF), which measures phosphorylation of a peptide substrate. The LANCE® Ultra kinase assay (PerkinElmer) uses a ULight™-labeled EIF4E-binding protein 1 (THR37/46) peptide (DYSTTPGGTLFSTTPGTRI) (SEQ ID NO: 1) substrate and a Europium-labeled anti-phospho-4E-BP1 antibody (CDK2, CDK1, CDK4, CDK6, CDK9, CDK12, CDK13) or ULight™-labeled Myelin Basic Protein peptide (VTPRTPPP) (SEQ ID NO: 2) substrate and a Europium-labeled anti-phospho-MBP antibody (CDK7). Each CDK enzyme activity assays utilized human CDK co-expressed as N-terminal GST-tagged protein with its full length cyclin partner using a baculovirus expression system.
Chain of CDK12 complexed with Cyclin K (Q9NYV4 whole entry): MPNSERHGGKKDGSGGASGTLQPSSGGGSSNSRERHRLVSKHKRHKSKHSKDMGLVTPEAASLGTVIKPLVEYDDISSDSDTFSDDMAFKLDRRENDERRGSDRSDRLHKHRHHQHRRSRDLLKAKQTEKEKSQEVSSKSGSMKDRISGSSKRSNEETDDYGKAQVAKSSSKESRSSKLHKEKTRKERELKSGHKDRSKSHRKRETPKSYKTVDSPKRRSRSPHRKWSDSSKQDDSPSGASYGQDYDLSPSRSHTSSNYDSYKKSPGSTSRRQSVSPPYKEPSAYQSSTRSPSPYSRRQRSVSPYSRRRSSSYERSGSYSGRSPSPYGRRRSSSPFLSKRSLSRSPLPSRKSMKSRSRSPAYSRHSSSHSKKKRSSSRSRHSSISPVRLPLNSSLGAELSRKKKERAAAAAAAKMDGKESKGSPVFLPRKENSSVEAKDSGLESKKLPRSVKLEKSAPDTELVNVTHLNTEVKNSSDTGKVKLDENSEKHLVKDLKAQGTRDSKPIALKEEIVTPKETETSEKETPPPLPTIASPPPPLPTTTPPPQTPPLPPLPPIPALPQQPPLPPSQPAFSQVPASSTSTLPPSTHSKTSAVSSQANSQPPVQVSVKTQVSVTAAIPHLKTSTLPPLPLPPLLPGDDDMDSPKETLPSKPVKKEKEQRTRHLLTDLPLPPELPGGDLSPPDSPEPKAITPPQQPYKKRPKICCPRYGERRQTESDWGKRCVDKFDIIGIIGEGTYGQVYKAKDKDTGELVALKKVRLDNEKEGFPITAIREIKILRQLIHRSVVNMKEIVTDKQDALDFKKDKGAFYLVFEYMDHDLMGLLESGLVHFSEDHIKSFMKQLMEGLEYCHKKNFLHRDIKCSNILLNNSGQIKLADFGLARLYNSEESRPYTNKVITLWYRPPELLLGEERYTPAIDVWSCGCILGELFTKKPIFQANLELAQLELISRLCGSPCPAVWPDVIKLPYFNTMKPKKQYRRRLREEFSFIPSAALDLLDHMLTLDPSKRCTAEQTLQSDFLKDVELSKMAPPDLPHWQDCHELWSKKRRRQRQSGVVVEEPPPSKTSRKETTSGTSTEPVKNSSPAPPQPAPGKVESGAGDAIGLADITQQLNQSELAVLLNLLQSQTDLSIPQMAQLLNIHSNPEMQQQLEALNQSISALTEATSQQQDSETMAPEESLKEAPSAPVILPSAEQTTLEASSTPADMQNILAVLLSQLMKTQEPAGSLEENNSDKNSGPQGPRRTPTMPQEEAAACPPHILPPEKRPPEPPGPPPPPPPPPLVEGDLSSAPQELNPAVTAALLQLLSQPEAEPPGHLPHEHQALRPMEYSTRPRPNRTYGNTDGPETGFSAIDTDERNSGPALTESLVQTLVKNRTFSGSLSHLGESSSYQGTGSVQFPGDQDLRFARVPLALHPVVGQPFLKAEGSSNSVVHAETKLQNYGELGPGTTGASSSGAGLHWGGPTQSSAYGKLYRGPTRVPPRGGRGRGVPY
Chain of CDK12 complexed with Cyclin K (O75909 whole entry partner): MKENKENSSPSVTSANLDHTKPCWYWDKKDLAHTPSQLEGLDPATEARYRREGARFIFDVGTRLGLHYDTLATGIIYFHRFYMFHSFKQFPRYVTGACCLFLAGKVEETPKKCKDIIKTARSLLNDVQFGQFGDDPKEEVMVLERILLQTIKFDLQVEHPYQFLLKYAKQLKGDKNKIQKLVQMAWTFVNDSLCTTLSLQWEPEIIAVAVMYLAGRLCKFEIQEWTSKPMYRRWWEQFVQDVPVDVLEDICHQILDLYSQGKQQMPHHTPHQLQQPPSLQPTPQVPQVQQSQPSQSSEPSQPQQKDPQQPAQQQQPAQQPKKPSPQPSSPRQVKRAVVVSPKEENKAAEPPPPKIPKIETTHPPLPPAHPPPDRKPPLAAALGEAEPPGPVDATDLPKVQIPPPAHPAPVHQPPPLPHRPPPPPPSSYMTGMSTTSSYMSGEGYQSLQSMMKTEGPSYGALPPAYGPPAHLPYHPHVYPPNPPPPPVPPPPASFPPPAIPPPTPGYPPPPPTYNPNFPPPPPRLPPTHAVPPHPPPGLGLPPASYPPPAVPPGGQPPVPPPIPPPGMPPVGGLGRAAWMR
Enzyme was pre-incubated with compounds for 30 minutes (CDK1,2,4,6,9) or 60 minutes (CDK7, CDK12, CDK13) prior to addition of ATP and Ulight-peptide (1 mM and 50 nM final, respectively), in assay buffer containing 50 mM HEPES pH 7.5, 1 mM EGTA, 10 mM MgCl2, 2 mM DTT, 0.05 mg/mL BSA, and 0.01% Tween 20.
The reaction was then incubated for 60-90 minutes at room temperature. The reactions were stopped by the addition of EDTA and Europium labeled antibody, for a final concentration of 15 mM and 1.0-1.5 nM, respectively. HTRF signals were read after 15-120 minutes. A ratio of fluorescence transferred to the labeled substrate (665 nm) relative to fluorescence of the Europium donor (620 nm) represents the extent of phosphorylation. Ratios for treated wells were normalized to DMSO only (100% activity) and no enzyme (0% activity) controls. Normalized data was analyzed using a three or four parameter dose response curve to determine IC50 for each compound and are shown in Table A. Control reference inhibitors were included on each plate.
A general note: In TR-FRET formats the signal depends on donor and acceptor labels being close together.
The compound `N#Cc1cnc(N[C@@H]2CCC[C@H](n3cnc4cccnc43)C2)nc1-c1cnn2c1OCCC2` [Example 25, 2-(((1R,3S)-3-(3H-Imidazo[4,5-b]pyridin-3-yl)cyclohexyl)amino)-4-(6,7-dihydro-5H-pyrazolo[5,1-b][1,3]oxazin-3-yl)pyrimidine-5-carbonitrile] showed an IC50 of 50 to 500 nM.

On to `Cn1ncc(-c2nc(N[C@@H]3CCC[C@H](n4cnc5cccnc54)C3)ncc2C#N)c1CO` [Example 26, 2-(((1R,3S)-3-(3H-Imidazo[4,5-b]pyridin-3-yl)cyclohexyl)amino)-4-(5-(hydroxymethyl)-1-methyl-1H-pyrazol-4-yl)pyrimidine-5-carbonitrile], for which the IC50 lay in the range of 50 to 500 nM.

Regarding `CC(C)n1cnc(-c2nc(N[C@@H]3CCC[C@H](n4cnc5cccnc54)C3)ncc2C#N)c1` [Example 27, 2-(((1R,3S)-3-(3H-Imidazo[4,5-b]pyridin-3-yl)cyclohexyl)amino)-4-(1-isopropyl-1H-imidazol-4-yl)pyrimidine-5-carbonitrile], the IC50 is under 50 nM.

The compound `Cc1cnc(-c2nc(N[C@@H]3CCC[C@H](n4cnc5cc(C#N)cnc54)C3)ncc2C#N)n1C` [Example 29, 3-((1S,3R)-3-((5-Cyano-4-(1,5-dimethyl-1H-imidazol-2-yl)pyrimidin-2-yl)amino)cyclohexyl)-3H-imidazo[4,5-b]pyridine-6-carbonitrile] registered an IC50 of 50 to 500 nM.

With `Cc1c(Nc2nc(N[C@@H]3CCC[C@H](n4cnc5cc(C#N)cnc54)C3)ncc2C#N)cnn1C` [Example 30, 3-((1S,3R)-3-((5-Cyano-4-((1,5-dimethyl-1H-pyrazol-4-yl)amino)pyrimidin-2-yl)amino)cyclohexyl)-3H-imidazo[4,5-b]pyridine-6-carbonitrile], the IC50 lay within 50 to 500 nM.

As for `N#Cc1cnc(N[C@@H]2CCC[C@H](n3cnc4cncc(C#N)c43)C2)nc1-c1cnn(CC(F)F)c1` [Example 31, 1-((1S,3R)-3-((5-Cyano-4-(1-(2,2-difluoroethyl)-1H-pyrazol-4-yl)pyrimidin-2-yl)amino)cyclohexyl)-1H-imidazo[4,5-c]pyridine-7-carbonitrile], the IC50 was under 50 nM.

`N#Cc1cnc(N[C@@H]2CCC[C@H](n3cnc4cncc(C#N)c43)C2)nc1-c1cnn(CCO)c1` [Example 32, 1-((1S,3R)-3-((5-Cyano-4-(1-(2-hydroxyethyl)-1H-pyrazol-4-yl)pyrimidin-2-yl)amino)cyclohexyl)-1H-imidazo[4,5-c]pyridine-7-carbonitrile] registered an IC50 of under 50 nM.

Compound `CC(C)n1cc(-c2nc(N[C@@H]3CCC[C@H](n4cnc5cncc(C#N)c54)C3)ncc2C#N)cn1` [Example 33, 1-((1S,3R)-3-((5-Cyano-4-(1-isopropyl-1H-pyrazol-4-yl)pyrimidin-2-yl)amino)cyclohexyl)-1H-imidazo[4,5-c]pyridine-7-carbonitrile] showed an IC50 of under 50 nM.

Turning to `N#Cc1cnc(N[C@@H]2CCC[C@H](n3cnc4cncc(C#N)c43)C2)nc1-c1cnn(C2CC2)c1` [Example 34, 1-((1S,3R)-3-((5-Cyano-4-(1-cyclopropyl-1H-pyrazol-4-yl)pyrimidin-2-yl)amino)cyclohexyl)-1H-imidazo[4,5-c]pyridine-7-carbonitrile], the IC50 is under 50 nM.

On to `N#Cc1cnc2c(c1)ncn2[C@@H]1CCC[C@H](Nc2ncc(C#N)c(-c3cnn(CC(F)F)c3)n2)C1` [Example 35, 3-((1R,3S)-3-((5-Cyano-4-(1-(2,2-difluoroethyl)-1H-pyrazol-4-yl)pyrimidin-2-yl)amino)cyclohexyl)-3H-imidazo[4,5-b]pyridine-6-carbonitrile], for which the IC50 was over 500 nM.

In turn, `N#Cc1cnc(N[C@@H]2CCC[C@H](n3cnc4cc(F)cc(Cl)c43)C2)nc1-c1cnn(CC(F)F)c1` [Example 36, 2-(((1R,3S)-3-(7-Chloro-5-fluoro-1H-benzo[d]imidazol-1-yl)cyclohexyl)amino)-4-(1-(2,2-difluoroethyl)-1H-pyrazol-4-yl)pyrimidine-5-carbonitrile] showed an IC50 of under 50 nM.

`N#Cc1cnc2c(c1)ncn2[C@H]1CCC[C@@H](Nc2ncc(C#N)c(-c3cnn(C4CCC4)c3)n2)C1` [Example 38, 3-((1S,3R)-3-((5-Cyano-4-(1-cyclobutyl-1H-pyrazol-4-yl)pyrimidin-2-yl)amino)cyclohexyl)-3H-imidazo[4,5-b]pyridine-6-carbonitrile] came in with an IC50 of under 50 nM.

`N#Cc1cnc(N[C@@H]2CCC[C@H](n3cnc4cncc(Br)c43)C2)nc1-c1cnn(CC(F)F)c1` [Example 39, 2-(((1R,3S)-3-(7-Bromo-1H-imidazo[4,5-c]pyridin-1-yl)cyclohexyl)amino)-4-(1-(2,2-difluoroethyl)-1H-pyrazol-4-yl)pyrimidine-5-carbonitrile]: the IC50 was under 50 nM.

Regarding `N#Cc1cnc(N[C@@H]2CCC[C@H](n3cnc4cc(F)cc(Br)c43)C2)nc1-c1cnn(CC(F)F)c1` [Example 40, 2-(((1R,3S)-3-(7-Bromo-5-fluoro-1H-benzo[d]imidazol-1-yl)cyclohexyl)amino)-4-(1-(2,2-difluoroethyl)-1H-pyrazol-4-yl)pyrimidine-5-carbonitrile], the IC50 is under 50 nM.

Consider `N#Cc1cnc(N[C@@H]2CCC[C@H](n3cnc4cccc(Br)c43)C2)nc1-c1cnn(CC(F)F)c1` [Example 41, 2-(((1R,3S)-3-(7-Bromo-1H-benzo[d]imidazol-1-yl)cyclohexyl)amino)-4-(1-(2,2-difluoroethyl)-1H-pyrazol-4-yl)pyrimidine-5-carbonitrile], for which the IC50 is under 50 nM.

As for `N#Cc1cnc(N[C@@H]2CCC[C@H](n3cnc4cnc(Cl)c(Br)c43)C2)nc1-c1cnn(CC(F)F)c1` [Example 42, 2-(((1R,3S)-3-(7-Bromo-6-chloro-1H-imidazo[4,5-c]pyridin-1-yl)cyclohexyl)amino)-4-(1-(2,2-difluoroethyl)-1H-pyrazol-4-yl)pyrimidine-5-carbonitrile], the IC50 was under 50 nM.

`N#Cc1ccc2ncn([C@H]3CCC[C@@H](Nc4ncc(C#N)c(-c5cnn(CC(F)F)c5)n4)C3)c2c1` [Example 43, 1-((1S,3R)-3-((5-Cyano-4-(1-(2,2-difluoroethyl)-1H-pyrazol-4-yl)pyrimidin-2-yl)amino)cyclohexyl)-1H-benzo[d]imidazole-6-carbonitrile] showed an IC50 of under 50 nM.

`N#Cc1cnc(N[C@@H]2CCC[C@H](n3cnc4cncc(Cl)c43)C2)nc1-c1cnn(CC(F)F)c1` [Example 45, 2-(((1R,3S)-3-(7-Chloro-1H-imidazo[4,5-c]pyridin-1-yl)cyclohexyl)amino)-4-(1-(2,2-difluoroethyl)-1H-pyrazol-4-yl)pyrimidine-5-carbonitrile] yielded an IC50 of under 50 nM.

On to `N#Cc1cc2c(cn1)ncn2[C@H]1CCC[C@@H](Nc2ncc(C#N)c(-c3cnn(CC(F)F)c3)n2)C1` [Example 46, 1-((1S,3R)-3-((5-Cyano-4-(1-(2,2-difluoroethyl)-1H-pyrazol-4-yl)pyrimidin-2-yl)amino)cyclohexyl)-1H-imidazo[4,5-c]pyridine-6-carbonitrile], for which the 50% inhibitory concentration (IC50) is under 50 nM.

Turning to `N#Cc1ccc2ncn([C@H]3CCC[C@@H](Nc4ncc(C#N)c(-c5cnn(CC(F)F)c5)n4)C3)c2n1` [Example 47, 3-((1S,3R)-3-((5-Cyano-4-(1-(2,2-difluoroethyl)-1H-pyrazol-4-yl)pyrimidin-2-yl)amino)cyclohexyl)-3H-imidazo[4,5-b]pyridine-5-carbonitrile], the IC50 is under 50 nM.
